Test results reported in patent US11987579B2 (Duke University, priority 2018, dated 2024).

How the values were obtained:
pAMPK = experiment: Evaluation of phospho-AMPK levels by Western blot; type: cell-based; conditions: CCD841Co cells, whole cell lysate, vs DMSO control
Experimental: 12-well plates were incubated with 250 μL poly-D-lysine solution (Sigma, catalog number P6407) at 10 μg/mL for 30 minutes at room, temperature, the poly-D-lysine solution was removed, and the wells washed twice with 500 μL distilled water. Colonic epithelial CCD841Co cells were cultured in MEM medium plus 1 mM sodium pyruvate (Invitrogen, catalog number 11360070), lx MEM Non-Essential Amino Acids (Gibco catalog number 11140), 10% FBS, and 100 U/ml penicillinstreptomycin. 0.27 million CCD841Co cells per well were plated in culture medium in the poly-Dlysine coated 12-well plates and allowed to attach overnight at 37° C. in a 5% CO2 incubator. The next morning, the media was replaced with DMSO vehicle in cell media, DK419 or niclosamidein DMSO diluted to the indicated concentration with DMEM medium (Sigma, catalog number D5030) supplemented with 2 mM sodium pyruvate and 2 mM L-glutamine (Invitrogen, catalog number 25030081). […] After 30 minutes treatment, the media was removed and the cells were lysed with 120 μL 1×Laemmii sample buffer. Immunoblots of the cell lysates using antibodies to phospho-AMPK (pAMPK) (Cell Signaling Technology, catalog number 2535) and AMPK (Cell Signaling Technology, catalog number 2532) was used to detect phosphorylated AMPK ([…]) levels and total AMPK levels, respectively. Antibodies to β-actin were used as loading controls.

CCD841Co colonic cells = experiment: Assessment of oxygen consumption rate (OCR), Seahorse XFp; type: cell-based; conditions: 1 μM, CCD841Co cells, basal conditions, vs DMSO
Experimental: Colonic epithelial CCD841Co cells were plated in Seahorse XFp 8-well miniplates at 8000 cells/well and allowed to attach overnight at 37° C. in a 5% CO2 incubator. Polarographic analysis of OCR was performed using Seahorse XF Analyzer (Agilent Technologies, Santa Clara, Calif.) and a Seahorse XFp Cell Mito Stress Test Kit (Agilent Technologies, catalog number 103010-100). […] Data were analyzed by the software Wave (Version 2.3.0.20, Agilent Technologies, Santa Clara, Calif.).

CRC240 = experiment: Inhibition of cell proliferation by MTS assay, CRC240; type: cell-based; conditions: Homo sapiens; CRC240, MTS assay at 72 hr
Experimental: (§1) Colon cancer cell lines SW948, HT-29, HCT116, CRC240, SW480, and DLD-1 were used in the cell proliferation assay. All cell lines, except CRC240, were from ATCC. CRC240, a colorectal cancer patient derived xenograft (PDX) cell line, was obtained from the Hsu lab (Duke University). Generation of CRC240 cell line was previously reported. SW948 cells were cultured in Leibovitz's medium (Gibco, catalog number 21083-027). HT-29 and HCT116 cells were cultured in McCoy's 5A medium (Gibco, catalog number 16600-082). SW480 cells were cultured in MEM medium. CRC240 and DLD-1 cells were cultured in RPMI medium (Gibco, catalog number 11875-093). All media were supplemented with 10% FBS and 100 U/ml penicillin-streptomycin. […] IC50 values calculated using Graphpad Prism.

SW948 = experiment: Inhibition of cell proliferation by MTS assay, SW948; type: cell-based; conditions: Homo sapiens; SW948, MTS assay at 72 hr
Experimental: as §1

six CRC tumor cell lines = experiment: MTS assay, summary over six CRC tumor cell lines; type: cell-based; conditions: read-out: IC50 values, range over the six CRC cell lines
Experimental: as §1

HCT116 = experiment: Inhibition of cell proliferation by MTS assay, HCT116; type: cell-based; conditions: Homo sapiens, HCT-116; HCT116, MTS assay at 72 hr
Experimental: as §1

Wnt/β-catenin signaling = experiment: Wnt3A-stimulated TOPFlash reporter assay; type: cell-based; conditions: Homo sapiens; HEK293 stably expressing TOPFlash and Renilla luciferase, Wnt3A-conditioned medium, 0.04 to 10 μM, mean±SEM, n=3; read-out: IC50, inhibition of Wnt/β-catenin signaling in TOPFlash assay
Experimental: Wnt-3A conditioned medium was prepared using L WNT-3A cells (ATCC® CRL-2647™) purchased from ATCC, and was obtained using published protocols (http://www.atcc.org/Products/All/CRL-2647.aspx#culturemethod). HEK293 were stably transfected with p8×TOPFlash, Renilla luciferase plasmid pRL-TK, and pLKO.1. Briefly, stably transfected cells were seeded in 100 μL of cell growth medium (MEM, Sigma, catalog number M4655) supplemented with 10% FBS (Atlanta Biologieals, catalog number S11050), and 1 μg/mL puromycin (Sigma, catalog number P8833), 100 U/mL penicillin-streptomycin (Invitrogen, catalog number 15140122)/well in 96-well plates and incubated in 5% CO2 at 37° C. overnight to 100% confluency. Fifty microliters of Wnt-3A conditioned medium containing the chemical compounds to be tested or DMSO was added to each well. After 6 h treatment, the cell were washed once with PBS and lysed with 55 μL of Passive Lysis Buffer supplied in the Dual-Luciferase Reporter Assay kit (Promega, Catalog number E1960). Twenty-five microliters of cell lysate was used for measuring luciferase activity in a […] plate reader (FluoStar Optima, BMG Labtech, Chicago, Ill.).

CRC240 PDX tumors = experiment: CRC240 PDX xenograft tumor study; type: in vivo, NOD/SCID mice; conditions: 11 days
Experimental: The development of CRC240 PDX was previously reported (Lu et al. PLoS One 2017, 12, e0169439). Briefly, CRC240 PDX tissue were wash in PBS and then minced in PBS at 150 mg/mL. 200 μL of the PDX tissue suspension were implanted into the flanks of NOD/SCID mice. When PDX tumor volume reached about 100 mm^3, mice were randomized and were orally dosed for 11 days daily byniclosamide, DK419, or the vehicle control (10% 1-methyl-2-pyrrolidmone and 90% PEG300). […] DK419 was dissolved in the vehicle at 0.2 mg/ml and dosed at 1 mg/kg. Tumor size and body weight were measured at day 0, 4, 8, and 11. The day after the last dose, animals were euthanized and tumor samples were collected and processed for Western blot analysis. Briefly, tumor samples were lysed in RIPA Buffer (Thermofisher Scientific, catalog number 89900). Sample lysates were subjected to Western blot using antibodies to Survivin, c-Myc, and Axin2 as described above. β-actin was used as a loading control.

SW480 = experiment: Inhibition of cell proliferation by MTS assay, SW480; type: cell-based; conditions: Homo sapiens; SW480, MTS assay at 72 hr
Experimental: as §1

DLD-1 = experiment: Inhibition of cell proliferation by MTS assay, DLD-1; type: cell-based; conditions: Homo sapiens; DLD-1, MTS assay at 72 hr
Experimental: as §1

HT-29 = experiment: Inhibition of cell proliferation by MTS assay, HT-29; type: cell-based; conditions: Homo sapiens; HT-29, MTS assay at 72 hr
Experimental: as §1

IC50 (SW948) [nM] | IC50 (six CRC tumor cell lines) [nM] | IC50 (HCT116) [nM] | IC50 (Wnt/β-catenin signaling) [nM] | IC50 (SW480) [nM] | IC50 (DLD-1) [nM] | IC50 (HT-29) [nM] | Compound | pAMPK levels by Western blot (pAMPK) | oxygen consumption rate (CCD841Co colonic cells) | IC50 (CRC240) [nM] | growth of CRC240 PDX tumors (tumor volume) (CRC240 PDX tumors; 1 mg/kg (2.4 μmol/kg) oral once a day, vs vehicle) | body weight (CRC240 PDX tumors; 1 mg/kg oral once a day) | levels of Wnt/β-catenin target genes (Axin2, Survivin, c-Myc) in tumors, Western blot (CRC240 PDX tumors; 1 mg/kg oral once a day, tumors collected day after last dose, vs vehicle) | growth of CRC240 PDX tumors (tumor volume) (CRC240 PDX tumors; 72 mg/kg (220 μmol/kg) oral once a day, vs vehicle) | body weight (CRC240 PDX tumors; 72 mg/kg oral once a day)
40 | 40 to 350 | 230 | 190 ± 80 | 320 | 350 | 110 | O=C(Nc1ccc(C(F)(F)F)cc1)c1cc(Cl)cc2nc(C(F)(F)F)[nH]c12 [DK419, 6-chloro-2-(trifluoromethyl)-N-(4-(trifluoromethyl)phenyl)-1H-benzo[d]imidazole-4-carboxamide] | increased the levels of pAMPK | increases the rate of oxygen consumption | 310 | inhibited the growth of CRC240 PDX tumors compared to vehicle control | Neither DK419 nor niclosamide produced a change in body weight | reduced significantly |  | 
100 | 100 to 1780 | 310 | 450 ± 140 | 740 | 1780 | 100 | O=C(Nc1ccc([N+](=O)[O-])cc1Cl)c1cc(Cl)ccc1O [Niclosamide, reference compound] | increased pAMPK levels | increases the oxygen consumption rate | 680 |  |  |  | inhibited tumor growth | Neither DK419 nor niclosamide produced a change in body weight
